According to patent US9670172B2, “Heterocyclic compounds and methods of use” (Medivation Technologies, Inc., priority 2014, dated 2017):
≈ marks a conversion by molar mass, not a printed value. Where two headings read alike, the source gives them in different places.

How the values were obtained:
[1] = tested on: SREBP2; test: SREBP2 cleavage in HEPG2 cells (Western blot normalized to actin); type: cell-based; conditions: Homo sapiens, several concentrations, FIG. 1
[2] = Solubility study at different pH (Pion, Inc.); type: physicochemical; conditions: aqueous buffer
From the text: Other ionized forms are conceivable, but those presented here are a protonated form; a neutral or internal zwitterionic form; and an anionic form. Which form would exist is dependent upon the pH of the aqueous or physiological solution in which the compound is placed. […] These values are similar to those experimentally obtained under potentiometric and spectrophotometric methods [courtesy of Pion, Inc.], found to be 3.09 and 5.27. […] It is postulated that the more electronegative nature of the CF3 group results in a more highly acidic nature of the compound. Based on the calculated/measured pKa values of the trifluoromethylsulfonamide containing compounds claimed herein, it is likely that at a pH of 6-8, these compounds will predominantly exist in the anionic form, with the above equilibrium lying to the right at higher pH values. The anionic form renders the compound more aqueous soluble and therefore better absorbed. […] When a compound is dosed orally, most of the absorption occurs in the intestines where the pH ranges from 6-8.

[3] = pKa by potentiometric and spectrophotometric methods (Pion, Inc.); type: physicochemical; conditions: two values, read-out: pKa experimentally obtained
From the text: As has been described above, the inherent pKa(s) of molecules can be assessed by potentiometric methods known to the skilled artisan, typically UV spectrophotometry [see, for example, Julémont, et al. J. Med. Chem. (2002), 45, pp 5182-5185]. In-silico methods can be used as a predictive tool, and software is commercially available from, for example, ACD/Labs, Molecular Discovery, ChemAxon, and other vendors. […] The compounds provided herein contain several ionizable centers including, for example, the trifluoromethylsulfonamide nitrogen atom; the thiazole ring nitrogen atom; the “ring A” pyridine nitrogen atom, etc.
Other ionized forms are conceivable, but those presented here are a protonated form; a neutral or internal zwitterionic form; and an anionic form. Which form would exist is dependent upon the pH of the aqueous or physiological solution in which the compound is placed. […] These values are similar to those experimentally obtained under potentiometric and spectrophotometric methods [courtesy of Pion, Inc.], found to be 3.09 and 5.27. […] Based on the calculated/measured pKa values of the trifluoromethylsulfonamide containing compounds claimed herein, it is likely that at a pH of 6-8, these compounds will predominantly exist in the anionic form, with the above equilibrium lying to the right at higher pH values. […]

[4] = tested on: SREBP2; test: SREBP2 cleavage in HEPG2 cells (Western blot normalized to actin); type: cell-based; conditions: Homo sapiens, HepG2 cells, read-out: Average SREBP2 cleavage (% Inhibition, n = 3); for inhibition at 20 µM: 24 h, 1 day, DMEM without FBS
Description: Average SREBP2 cleavage in HEPG2 cells was measured in the presence of compounds disclosed in Table 1. HepG2 cells were seeded at 500,000 cells per well in 6-well plates in DMEM supplemented with 10% FBS. After 2 days, cells were treated with compounds (20 μM) for 1 day in DMEM without FBS. Western blots were normalized with respect to actin.
The results are shown in Table 3 as percent inhibition@20 μM, and in Table 4 as percent inhibition@5 μM.

[5] = HepG2 cell viability by MTS; type: cell-based; conditions: human, HepG2 cells, 3 days, DMEM without FBS, MTS, read-out: Average Viability (% Inhibition, n = 3)
Description: (§1) For viability measurements, HepG2 cells were seeded at 5,000 cells per well in 96-well plates in DMEM supplemented with 10% FBS. After 1 day in culture, cells were treated with compounds (20 μM & 5 μM) for 3 days in DMEM without FBS. Viability was measured by MTS. Treatment with compounds (20 μM & 5 μM) was carried out in medium without FBS, and viability was measured by MTS. […]

[6] = tested on: HepG2 cells; test: HepG2 cell viability by MTS; type: cell-based; conditions: Homo sapiens, several concentrations, FIG. 1
Description: as §1

[7] = PK parameters for representative compounds (i.v. and p.o.); conditions: in vivo; for half-life: read-out: Terminal t1/2 (converted)
From the text: Standard PK parameters were collected in Mouse and Dog for Compound #37 in mouse (FIG. 4A) and dog (FIG. 4B).

SMILES	solubility ([2]; pH 6.0) [µg/mL]	solubility ([2]; pH 7.0) [µg/mL]	solubility ([2]; pH 8.0) [µg/mL]	pKa [3]	IC50 [6] [µM]	AUC(0-t) ([7]; iv, i.v. @ 2 mg/kg) [µM·h]	Cmax ([7]; iv, i.v. @ 2 mg/kg) [µM]	Vd ([7]; iv, i.v. @ 2 mg/kg) [L/kg]	clearance ([7]; iv, i.v. @ 2 mg/kg) [mL/min/kg]	half-life ([7]; iv, i.v. @ 2 mg/kg) [h]	AUC(0-t) ([7]; po, p.o. @ 10 mg/kg) [µM·h]	Cmax ([7]; po, p.o. @ 10 mg/kg) [µM]	Tmax ([7]; po, p.o. @ 10 mg/kg) [h]	bioavailability ([7]; po, p.o. @ 10 mg/kg) [%]	half-life ([7]; po, p.o. @ 10 mg/kg) [h]	IC50 [1] [µM]	inhibition at 20 µM [4] [%]	inhibition at 5 µM [4] [%]	cytotoxicity at 3 days, 5 μM [5] [%]	cytotoxicity at 3 days, 20 μM [5] [%]
O=S(=O)(Nc1ccc(-c2csc(-c3ccnc(Cc4ccccc4)c3)n2)c(Cl)c1)C(F)(F)F [Compound 60, N-{4-[2-(2-benzylpyridin-4-yl)-1,3-thiazol-4-yl]-3-chlorophenyl}-1,1,1-trifluoromethanesulfonamide]	–	–	–	–	–	12.6	3.38	1.28	4.8	3.08	57.1	6.58	4	90.2	> 8	–	99	–	–	100
O=S(=O)(Nc1ccc(-c2csc(-c3ccnc(CCC(F)(F)F)c3)n2)c(Cl)c1)C(F)(F)F [Compound 64, N-(3-chloro-4-{2-[2-(3,3,3-trifluoropropyl)pyridin-4-yl]-1,3-thiazol-4-yl}phenyl)-1,1,1-trifluoromethanesulfonamide]	–	–	–	–	–	38.5	7.13	1.95	0.917	–	526	32.1	24	273	> 8	–	97	–	–	100
O=S(=O)(Nc1ccc(-c2csc(-c3ccnc(CC4CCCCC4)c3)n2)c(Cl)c1)C(F)(F)F [Compound 70, N-(3-chloro-4-{2-[2-(cyclohexylmethyl)pyridin-4-yl]-1,3-thiazol-4-yl}phenyl)-1,1,1-trifluoromethanesulfonamide]	–	–	–	–	–	2.2	4	5.22	54.7	1.1	5.19	2.2	0.5	46.4	1.04	–	–	73	100	–
O=S(=O)(Nc1ccc(-c2csc(-c3cccc4ccccc34)n2)c(Cl)c1)C(F)(F)F [Compound 71, N-{3-chloro-4-[2-(naphthalen-1-yl)-1,3-thiazol-4-yl]phenyl}-1,1,1-trifluoromethanesulfonamide]	–	–	–	–	–	13.6	3.57	1.27	4.18	3.5	51.5	7.57	4	75.9	> 8	–	–	77	97	–
O=S(=O)(Nc1ccc(-c2csc(-c3ccnc(NC4CCCC4)c3)n2)c(Cl)c1)C(F)(F)F [Compound 92, N-(3-chloro-4-{2-[2-(cyclopentylamino)pyridin-4-yl]-1,3-thiazol-4-yl}phenyl)-1,1,1-trifluoromethanesulfonamide]	–	–	–	–	–	–	–	–	–	–	–	–	–	–	–	–	–	59	94	–
O=S(=O)(Nc1ccc(-c2csc(-c3c[nH]c4ccccc34)n2)c(Cl)c1)C(F)(F)F [Compound 93, N-{3-chloro-4-[2-(1H-indol-3-yl)-1,3-thiazol-4-yl]phenyl}-1,1,1-trifluoromethanesulfonamide]	–	–	–	–	–	–	–	–	–	–	–	–	–	–	–	–	–	28	82	–
O=S(=O)(Nc1ccc(-c2csc(-c3ccnc4ccccc34)n2)c(Cl)c1)C(F)(F)F [Compound 94, N-[3-chloro-4-[2-(4-quinolyl)thiazol-4-yl]phenyl]-1,1,1-trifluoro-methanesulfonamide]	–	–	–	–	–	–	–	–	–	–	–	–	–	–	–	–	–	35	84	–
O=S(=O)(Nc1ccc(-c2csc(-c3ccnc(Cl)c3)n2)c(Cl)c1)C(F)(F)F [Compound 95, N-(3-chloro-4-(2-(2-chloropyridin-4-yl)thiazol-4-yl)phenyl)-1,1,1-trifluoromethanesulfonamide]	–	–	–	–	–	–	–	–	–	–	–	–	–	–	–	–	–	39	86	–

Continued, in another order:

solubility ([2]; pH 6.0) [µg/mL]	solubility ([2]; pH 7.0) [µg/mL]	solubility ([2]; pH 8.0) [µg/mL]	pKa [3]	IC50 [6] [µM]	AUC(0-t) ([7]; iv, i.v. @ 2 mg/kg) [µM·h]	Cmax ([7]; iv, i.v. @ 2 mg/kg) [µM]	Vd ([7]; iv, i.v. @ 2 mg/kg) [L/kg]	clearance ([7]; iv, i.v. @ 2 mg/kg) [mL/min/kg]	half-life ([7]; iv, i.v. @ 2 mg/kg) [h]	AUC(0-t) ([7]; po, p.o. @ 10 mg/kg) [µM·h]	Cmax ([7]; po, p.o. @ 10 mg/kg) [µM]	Tmax ([7]; po, p.o. @ 10 mg/kg) [h]	bioavailability ([7]; po, p.o. @ 10 mg/kg) [%]	half-life ([7]; po, p.o. @ 10 mg/kg) [h]	SMILES	IC50 [1] [µM]	inhibition at 20 µM [4] [%]	inhibition at 5 µM [4] [%]	cytotoxicity at 3 days, 5 μM [5] [%]	cytotoxicity at 3 days, 20 μM [5] [%]
13 (≈ 27.3 µM)	104 (≈ 219 µM)	> 130	3.09	2.15	–	–	–	–	–	–	–	–	–	–	CC(C)Cc1cc(-c2nc(-c3ccc(NS(=O)(=O)C(F)(F)F)cc3Cl)cs2)ccn1 [Compound 37, N-(3-chloro-4-(2-(2-isobutylpyridin-4-yl)thiazol-4-yl)phenyl)-1,1,1-trifluoromethanesulfonamide]	4.6	94.6	75	94	95
–	–	–	–	–	8.94	3.63	1.72	70.8	2.8	130	20.6	4	291	> 8	O=S(=O)(Nc1ccc(-c2csc(-c3cccc4[nH]ccc34)n2)c(Cl)c1)C(F)(F)F [Compound 80, N-{3-chloro-4-[2-(1H-indol-4-yl)-1,3-thiazol-4-yl]phenyl}-1,1,1-trifluoromethanesulfonamide]	–	–	90	86	–
–	–	–	–	–	25.4	12.6	0.719	2.28	3.64	175	25.8	4	138	> 8	O=S(=O)(Nc1ccc(-c2csc(-c3ccc4c(c3)CCO4)n2)c(Cl)c1)C(F)(F)F [Compound 82, N-{3-chloro-4-[2-(2,3-dihydro-1-benzofuran-5-yl)-1,3-thiazol-4-yl]phenyl}-1,1,1-trifluoromethanesulfonamide]	–	–	77	82	–
–	–	–	–	–	0.655	0.241	27.3	77.2	4.08	2.27	0.45	2	69.3	> 8	O=S(=O)(Nc1ccc(-c2csc(-c3ccnc(N4CCCCC4)c3)n2)c(Cl)c1)C(F)(F)F [Compound 85, N-(3-chloro-4-{2-[2-(piperidin-1-yl)pyridin-4-yl]-1,3-thiazol-4-yl}phenyl)-1,1,1-trifluoromethanesulfonamide]	–	–	82	93	–
–	–	–	–	–	10.6	3.44	1.45	5	3.35	51.5	8.41	2	96.8	> 8	O=S(=O)(Nc1ccc(-c2csc(-c3cccc(N4CCCCC4)c3)n2)c(Cl)c1)C(F)(F)F [Compound 88, N-(3-chloro-4-{2-[3-(piperidin-1-yl)phenyl]-1,3-thiazol-4-yl}phenyl)-1,1,1-trifluoromethanesulfonamide]	–	–	90	19	–
